According to US8946430B2, “Quinolinone carboxamide inhibitors of endothelial lipase” (Bristol-Myers Squibb Company, priority 2011, dated 2015):
pIC50: −log10 of the molar value.

Each molecule was assayed against T1, endothelial lipase (EL) (Homo sapiens, UniProt Q9Y5X9) (assay: Endothelial lipase (EL) enzymatic assay with fluorescent substrate A10070 in DMPG vesicles). Settings: conditioned media from HT-1080 cells overexpressing endogenous EL; 20 min preincubation at 37° C.; FRET substrate A10070; read-out: HLE_EL_CRC IC50.
T1 construct: transformed by RAGE technology (Athersys) to overexpress endogenous EL; endogenous in cells; conditioned medium used as the enzyme source
T1 sequence (Q9Y5X9 21-500): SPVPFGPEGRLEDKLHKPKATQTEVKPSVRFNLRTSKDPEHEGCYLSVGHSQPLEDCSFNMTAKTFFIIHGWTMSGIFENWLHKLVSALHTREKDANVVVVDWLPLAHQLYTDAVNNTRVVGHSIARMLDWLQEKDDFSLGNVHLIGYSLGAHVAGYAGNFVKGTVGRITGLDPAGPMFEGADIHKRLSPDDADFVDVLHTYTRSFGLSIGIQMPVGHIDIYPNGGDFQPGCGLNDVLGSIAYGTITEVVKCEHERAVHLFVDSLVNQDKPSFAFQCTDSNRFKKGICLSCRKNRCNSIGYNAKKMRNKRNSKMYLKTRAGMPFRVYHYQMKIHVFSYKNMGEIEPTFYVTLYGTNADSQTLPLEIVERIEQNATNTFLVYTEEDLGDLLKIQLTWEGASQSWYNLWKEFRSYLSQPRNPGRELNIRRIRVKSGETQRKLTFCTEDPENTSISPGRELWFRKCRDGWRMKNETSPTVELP
Assay type: biochemical
Experimental: Endothelial lipase activity was measured using a fluorescent substrate, A10070, (Invitrogen, CA) doped into an artificial vesicle containing DMPG (Avanti Polar Lipids) as the excipient. Vesicles were prepared by combining 285 uL of 1 mM DMPG in a 1:1 mixture of MeOH and CHCl3 with 15 uL of 1 mM A10070 in a 1:1 mixture of MeOH and CHCl3. The mixture was dried under nitrogen and resuspended in 150 uL of 50 mM HEPES pH 8.0 buffer containing 100 mM NaCl and 0.2 mM EDTA. The sample was allowed to sit at rt for 15 min and then was sonicated 3×4 mins on ice with a Branson Sonicator using duty cycle 1. This preparation provides vesicles with a mole fraction of 0.05 for the FRET substrate.
The enzymatic assay was measured using white, opaque 96-well half area plates. Each well contained 60 uL of assay buffer (50 mM HEPES pH 8.0, 50 mM NaCl and 1 mM CaCl2) and 2 ul of a DMSO solution containing compound of interest. Conditioned media obtained from HT-1080 cells, which were transformed by RAGE technology (Athersys) to overexpress endogenous EL, was added and the reaction was allowed to incubate for 20 min at 37° C. with gentle agitation. The reaction was started by the addition of 20 uL of a 1:4 dilution of vesicles. The final total reaction volume was 100 uL. The reaction rates were measured on a Gemini plate reader with an excitation wavelength of 488 nm and a emission of 530 nm. Readings were taken every 20 seconds for 10 min with agitation between each reading. The slope of the linear portion of the readout was used to calculate the rate of the reaction.

`Cn1c(=O)c(O)c(C(=O)NCCc2ccc(-c3ccc(F)cc3)cc2)c2ccccc21` [Example 151, N-(2-(4′-fluorobiphenyl-4-yl)ethyl)-3-hydroxy-1-methyl-2-oxo-1,2-dihydroquinoline-4-carboxamide] was tested. Which pIC50 did it give?
The pIC50 was 7.12.

`Cn1c(=O)c(O)c(C(=O)NCCCc2ccc(Cl)c(Cl)c2)c2cc(Cl)ccc21` [Example 3, 6-Chloro-N-(3-(3,4-dichlorophenyl)propyl)-3-hydroxy-1-methyl-2-oxo-1,2-dihydroquinoline-4-carboxamide] was tested. Which pIC50 did it give?
The pIC50 was 8.00.

With `Cn1c(=O)c(O)c(C(=O)NC(Cc2ccccc2)c2ccccc2)c2ccccc21` (stereo not shown) [Example 155, N-(1,2-diphenylethyl)-3-hydroxy-1-methyl-2-oxo-1,2-dihydroquinoline-4-carboxamide] as the molecule, how does the pIC50 read?
Its pIC50 is 5.51.

With `Cn1c(=O)c(O)c(C(=O)NCCCc2ccc(Cl)c(Cl)c2)c2ccccc21` [Example 1, N-(3-(3,4-dichlorophenyl)propyl)-3-hydroxy-1-methyl-2-oxo-1,2-dihydroquinoline-4-carboxamide] as the molecule, how does the pIC50 read?
The pIC50 was 8.00.

How did the pIC50 turn out when `Cn1c(=O)c(O)c(C(=O)NCCOc2ccc(Cl)cc2)c2ccccc21` [Example 26, N-(2-(4-chlorophenoxy)ethyl)-3-hydroxy-1-methyl-2-oxo-1,2-dihydroquinoline-4-carboxamide] was run?
Its pIC50 is 7.04.

How did the pIC50 turn out when `O=C(NCCCc1ccc(Cl)cc1Cl)c1c(O)c(=O)[nH]c2ccc(OC(F)(F)F)cc12` [Example 28, N-(3-(2,4-dichlorophenyl)propyl)-3-hydroxy-2-oxo-6-(trifluoromethoxy)-1,2-dihydroquinoline-4-carboxamide] was run?
The pIC50 was 7.46.

How did the pIC50 turn out when `Cn1c(=O)c(O)c(C(=O)NCc2csc(-c3ccccc3)n2)c2ccccc21` [Example 90, 3-hydroxy-1-methyl-2-oxo-N-((2-phenylthiazol-4-yl)methyl)-1,2-dihydroquinoline-4-carboxamide] was run?
The pIC50 was 7.08.

With `Cn1c(=O)c(O)c(C(=O)NCCCc2ccc(Cl)cc2Cl)c2ccccc21` [Example 2, N-(3-(2,4-Dichlorophenyl)propyl)-3-hydroxy-1-methyl-2-oxo-1,2-dihydroquinoline-4-carboxamide] as the molecule, how does the pIC50 read?
The pIC50 was 7.89.

`Cn1c(=O)c(O)c(C(=O)NCCCOc2ccc(-c3ccccc3)cc2)c2ccccc21` [Example 133, N-(3-(biphenyl-4-yloxy)propyl)-3-hydroxy-1-methyl-2-oxo-1,2-dihydroquinoline-4-carboxamide] was tested. Which pIC50 did it give?
Its pIC50 is 8.00.

`Cn1c(=O)c(O)c(C(=O)NCCc2ccc(C(F)(F)F)cc2)c2ccccc21` [Example 92, 3-hydroxy-1-methyl-2-oxo-N-(4-(trifluoromethyl)phenethyl)-1,2-dihydroquinoline-4-carboxamide] was tested. Which pIC50 did it give?
Its pIC50 is 7.08.

`Cn1c(=O)c(O)c(C(=O)NCc2ccc(OC(F)(F)F)cc2)c2ccccc21` [Example 85, 3-hydroxy-1-methyl-2-oxo-N-(4-(trifluoromethoxy)benzyl)-1,2-dihydroquinoline-4-carboxamide] was tested. Which pIC50 did it give?
Its pIC50 is 7.37.

`Cn1c(=O)c(O)c(C(=O)NCc2nc3ccccc3s2)c2ccccc21` [Example 107, N-(benzo[d]thiazol-2-ylmethyl)-3-hydroxy-1-methyl-2-oxo-1,2-dihydroquinoline-4-carboxamide] was tested. Which pIC50 did it give?
The pIC50 was 4.96.

With `Cn1c(=O)c(O)c(C(=O)NCc2cccc(-n3cccc3)c2)c2ccccc21` [Example 172, N-(3-(1H-pyrrol-1-yl)benzyl)-3-hydroxy-1-methyl-2-oxo-1,2-dihydroquinoline-4-carboxamide] as the molecule, how does the pIC50 read?
The pIC50 was 8.00.

With `COc1ccccc1OCCCNC(=O)c1c(O)c(=O)n(C)c2ccccc12` [Example 147, 3-hydroxy-N-(3-(2-methoxyphenoxy)propyl)-1-methyl-2-oxo-1,2-dihydroquinoline-4-carboxamide] as the molecule, how does the pIC50 read?
Its pIC50 is 7.31.

`O=C(NCCCc1c(Cl)cccc1Cl)c1c(O)c(=O)[nH]c2ccc(OC(F)(F)F)cc12` [Example 43, N-(3-(2,6-dichlorophenyl)propyl)-3-hydroxy-2-oxo-6-(trifluoromethoxy)-1,2-dihydroquinoline-4-carboxamide] was tested. Which pIC50 did it give?
Its pIC50 is 7.15.

`O=C(NCCCc1ccc(Cl)c(Cl)c1)c1c(O)c(=O)[nH]c2ccccc12` [Example 5, N-(3-(3,4-dichlorophenyl)propyl)-3-hydroxy-2-oxo-1,2-dihydroquinoline-4-carboxamide] was tested. Which pIC50 did it give?
Its pIC50 is 7.96.

How did the pIC50 turn out when `Cn1c(=O)c(O)c(C(=O)NCCCc2ccccc2Cl)c2ccccc21` [Example 27, N-(3-(2-chlorophenyl)propyl)-3-hydroxy-1-methyl-2-oxo-1,2-dihydroquinoline-4-carboxamide] was run?
The pIC50 was 7.46.

With `Cn1c(=O)c(O)c(C(=O)NCCCN2CCCC2=O)c2ccccc21` [Example 103, 3-hydroxy-1-methyl-2-oxo-N-(3-(2-oxopyrrolidin-1-yl)propyl)-1,2-dihydroquinoline-4-carboxamide] as the molecule, how does the pIC50 read?
Its pIC50 is 5.03.

`C[C@@H](NC(=O)c1c(O)c(=O)n(C)c2ccccc12)c1cccc(-c2ccccc2)c1` [Example 64, (R)-N-(1-(biphenyl-3-yl)ethyl)-3-hydroxy-1-methyl-2-oxo-1,2-dihydroquinoline-4-carboxamide] was tested. Which pIC50 did it give?
The pIC50 was 7.19.

How did the pIC50 turn out when `Cn1c(=O)c(O)c(C(=O)NCc2ccc(C(F)(F)F)cc2)c2ccccc21` [Example 105, 3-hydroxy-1-methyl-2-oxo-N-(4-(trifluoromethyl)benzyl)-1,2-dihydroquinoline-4-carboxamide] was run?
The pIC50 was 7.00.

`O=C(NCc1cccc(-c2ccc(Cl)cc2)c1)c1c(O)c(=O)[nH]c2ccc(OC(F)(F)F)cc12` [Example 42, N-((4′-chlorobiphenyl-3-yl)methyl)-3-hydroxy-2-oxo-6-(trifluoromethoxy)-1,2-dihydroquinoline-4-carboxamide] was tested. Which pIC50 did it give?
Its pIC50 is 7.02.

How did the pIC50 turn out when `Cn1c(=O)c(O)c(C(=O)NCc2ccccc2N2CCCC2)c2ccccc21` [Example 109, 3-hydroxy-1-methyl-2-oxo-N-(2-(pyrrolidin-1-yl)benzyl)-1,2-dihydroquinoline-4-carboxamide] was run?
The pIC50 was 5.54.

`COC[C@H](Cc1ccccc1)NC(=O)c1c(O)c(=O)n(C)c2ccccc12` [Example 96, (S)-3-hydroxy-N-(1-methoxy-3-phenylpropan-2-yl)-1-methyl-2-oxo-1,2-dihydroquinoline-4-carboxamide] was tested. Which pIC50 did it give?
The pIC50 was 5.07.

How did the pIC50 turn out when `O=C(NCCCOc1ccccc1C(F)(F)F)c1c(O)c(=O)[nH]c2ccc(OC(F)(F)F)cc12` [Example 50, 3-hydroxy-2-oxo-6-(trifluoromethoxy)-N-(3-(2-(trifluoromethyl)phenoxy)propyl)-1,2-dihydroquinoline-4-carboxamide] was run?
The pIC50 was 7.92.

With `Cn1c(=O)c(O)c(C(=O)NCc2ccccc2N2CCC(CO)CC2)c2ccccc21` [Example 141, 3-hydroxy-N-(2-(4-(hydroxymethyl)piperidin-1-yl)benzyl)-1-methyl-2-oxo-1,2-dihydroquinoline-4-carboxamide] as the molecule, how does the pIC50 read?
The pIC50 was 5.77.

How did the pIC50 turn out when `O=C(NCC1CN(S(=O)(=O)c2ccc(Cl)c(Cl)c2)C1)c1c(O)c(=O)[nH]c2ccc(OC(F)(F)F)cc12` [Example 55, N-((1-(3,4-dichlorophenylsulfonyl)azetidin-3-yl)methyl)-3-hydroxy-2-oxo-6-(trifluoromethoxy)-1,2-dihydroquinoline-4-carboxamide] was run?
The pIC50 was 7.60.

How did the pIC50 turn out when `O=C(NCCCOc1c(Cl)cccc1Cl)c1c(O)c(=O)[nH]c2ccc(OC(F)(F)F)cc12` [Example 51, N-(3-(2,6-dichlorophenoxy)propyl)-3-hydroxy-2-oxo-6-(trifluoromethoxy)-1,2-dihydroquinoline-4-carboxamide] was run?
The pIC50 was 7.40.

`Cn1c(=O)c(O)c(C(=O)NCc2cccc(OC(F)(F)F)c2)c2ccccc21` [Example 86, 3-hydroxy-1-methyl-2-oxo-N-(3-(trifluoromethoxy)benzyl)-1,2-dihydroquinoline-4-carboxamide] was tested. Which pIC50 did it give?
The pIC50 was 7.43.
